According to patent US8486456B2, “Itraconazole compositions with improved bioavailability” (Abbott GmbH & Co., KG, priority 2005, dated 2013):

Legend:
[1] = aqueous media; cited from earlier work
[2] = Thermal stability of itraconazole; format: physicochemical; settings: temperatures up to 300° C.

CCC(C)n1ncn(-c2ccc(N3CCN(c4ccc(OCC5COC(Cn6cncn6)(c6ccc(Cl)cc6Cl)O5)cc4)CC3)cc2)c1=O (single isomer, unassigned; (+)) [itraconazole, (+)-cis-4-[4-[4-[4-[[2-(2,4-dichlorophenyl)-2-(1H-1,2,4-triazol-1-yl-methyl)-1,3-dioxolan-4-yl]methoxy]phenyl]-1-piperazinyl]phenyl]-2,4-dihydro-2-(1-methylpropyl)-3H-1,2,4-triazol-3-one]
solubility [1]: practically insoluble
thermal stability [2]: thermally very stable
